{
  "source": "paper PMC5797143",
  "about": "“Epigenetic modulation of inflammation and synaptic plasticity promotes resilience against stress in mice” (Nature Communications, 2018)",
  "key": {"[1]": {"assay": "Plasma stability, human plasma", "type": "in vitro ADME", "conditions": "37 °C", "protocol": "Compound stability in mouse and human plasma and in mouse brain homogenate were conducted, [45]. Specifically, Mal-gluc or DHCA was incubated in duplicate with plasma at 37 °C and samples were taken at various time points and mixed with three volumes of ice-cold Stop Solution (methanol containing propranolol, diclofenac, or other internal standard). Samples were centrifuged to remove precipitated protein, and the supernatants were analyzed by LC/MS/MS to quantitate for remaining test compound. Data are converted to percentage remaining by dividing by the time zero concentration value. Data are fit to a first-order decay model to determine half-life. Plasma protein binding were conducted using both mouse and human plasma."}, "[2]": {"test_system": "MSN-enriched primary neurons and PBMCs", "assay": "MTT assay", "type": "cell-based, mouse", "protocol": "(§1) MTT and LDH release assays were conducted in MSN-enriched primary neurons and in PBMCs[64]. Cellular cytotoxicity was conducted in HepG2 cells using high content screening (HCS) protocols. Briefly, HepG2 cells were plated on 384-well tissue culture treated black walled clear bottomed polystyrene plates and treated with varying concentrations of Mal-gluc or DHCA. The cells were loaded with the relevant dye/antibody for each cell-health marker following incubation, including cell count, markers for nuclear size, DNA structure, cell membrane permeability, mitochondrial mass, mitochondrial membrane potential and cytochrome C release. The plates were then scanned using an automated fluorescent cellular imager ArrayScanr (Thermo Scientific Cellomics)."}, "CYP2B6": {"target": "T1, CYP2B6 (Homo sapiens, UniProt P20813)", "T1 construct": "from tissue; host or cells: human liver microsomes", "T1 sequence (P20813 whole entry)": "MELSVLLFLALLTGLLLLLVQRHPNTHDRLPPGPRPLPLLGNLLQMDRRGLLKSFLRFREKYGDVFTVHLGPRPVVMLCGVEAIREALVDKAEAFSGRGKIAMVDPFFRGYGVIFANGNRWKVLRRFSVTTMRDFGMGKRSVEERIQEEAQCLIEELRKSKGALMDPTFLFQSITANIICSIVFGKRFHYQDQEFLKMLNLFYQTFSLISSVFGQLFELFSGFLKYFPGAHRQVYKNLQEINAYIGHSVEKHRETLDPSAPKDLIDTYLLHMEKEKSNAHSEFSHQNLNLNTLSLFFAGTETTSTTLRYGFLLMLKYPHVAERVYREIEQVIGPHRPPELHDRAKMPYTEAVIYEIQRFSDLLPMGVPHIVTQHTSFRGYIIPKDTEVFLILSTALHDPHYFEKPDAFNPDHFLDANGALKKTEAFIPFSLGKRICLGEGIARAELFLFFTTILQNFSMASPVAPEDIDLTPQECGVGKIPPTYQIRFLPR", "assay": "CYP inhibition in human liver microsomes", "type": "in vitro ADME", "conditions": "read-out: CPY450 inhibition (IC50), CYP2B6", "protocol": "(§2) CYP inhibition was tested in isolated microsomes for CYP2D6, CYP3A4, CYP1A2, CYP2C9, CYP2C19, CYP2C8, and CYP2B6[66]. Briefly, increasing concentrations of Mal-gluc or DHCA were incubated with human liver microsomes (HLM) in the presence of 2 mM NADPH in 100 mM potassium phosphate (pH 7.4) containing 5 mM magnesium chloride and a specific probe substrate for different CYPs: tacrine (CYP1A2), amodiaquine (CYP2C8), tolbutamide (CYP2C9), S-mephenytoin (CYP2C19), dextromethorphan (CYP2D6), midazolam/testosterone (CYP3A4/5), or bupropion (CYP2B6). CYP-specific inhibitors were included alongside the test compound as a positive control, including α-naphthoflavone (CYP1A2), quercetin (CYP2C8), ketoconazole (CYP3A4/5), quinidine (CYP2D6), sulfaphenazole (CYP2C9), and ticlopidine (CYP2C19, CYP2B6). After incubation at 37 °C, the reactions were terminated by addition of a methanol-containing internal standard (propranolol) for analytical quantification. The quenched samples were then incubated at 4 °C for 10 min and centrifuged at 4 °C for 10 min. The supernatant was removed and the probe substrate metabolite was analyzed by LC-MS/MS (Agilent Technologies Triple Quad LC-MS/MS)."}, "CYP2C8": {"target": "T2, CYP2C8 (Homo sapiens, UniProt P10632)", "T2 construct": "from tissue; host or cells: human liver microsomes", "T2 sequence (P10632 whole entry)": "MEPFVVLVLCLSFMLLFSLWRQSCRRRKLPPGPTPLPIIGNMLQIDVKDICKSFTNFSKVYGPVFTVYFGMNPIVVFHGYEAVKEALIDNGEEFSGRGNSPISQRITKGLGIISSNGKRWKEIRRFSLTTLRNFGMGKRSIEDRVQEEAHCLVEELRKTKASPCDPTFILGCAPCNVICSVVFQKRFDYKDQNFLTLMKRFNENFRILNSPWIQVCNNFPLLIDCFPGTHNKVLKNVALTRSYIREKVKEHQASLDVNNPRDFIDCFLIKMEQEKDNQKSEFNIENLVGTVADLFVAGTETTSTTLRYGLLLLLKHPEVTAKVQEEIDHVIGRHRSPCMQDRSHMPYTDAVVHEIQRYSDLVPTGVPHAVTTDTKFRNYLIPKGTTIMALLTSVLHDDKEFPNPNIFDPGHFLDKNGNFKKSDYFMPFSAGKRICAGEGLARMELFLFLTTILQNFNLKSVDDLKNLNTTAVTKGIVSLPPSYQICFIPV", "assay": "CYP inhibition in human liver microsomes", "type": "in vitro ADME", "conditions": "read-out: CPY450 inhibition (IC50), CYP2C8", "protocol": "as §2"}, "CYP2C19": {"target": "T3, CYP2C19 (Homo sapiens, UniProt P33261)", "T3 construct": "from tissue; host or cells: human liver microsomes", "T3 sequence (P33261 whole entry)": "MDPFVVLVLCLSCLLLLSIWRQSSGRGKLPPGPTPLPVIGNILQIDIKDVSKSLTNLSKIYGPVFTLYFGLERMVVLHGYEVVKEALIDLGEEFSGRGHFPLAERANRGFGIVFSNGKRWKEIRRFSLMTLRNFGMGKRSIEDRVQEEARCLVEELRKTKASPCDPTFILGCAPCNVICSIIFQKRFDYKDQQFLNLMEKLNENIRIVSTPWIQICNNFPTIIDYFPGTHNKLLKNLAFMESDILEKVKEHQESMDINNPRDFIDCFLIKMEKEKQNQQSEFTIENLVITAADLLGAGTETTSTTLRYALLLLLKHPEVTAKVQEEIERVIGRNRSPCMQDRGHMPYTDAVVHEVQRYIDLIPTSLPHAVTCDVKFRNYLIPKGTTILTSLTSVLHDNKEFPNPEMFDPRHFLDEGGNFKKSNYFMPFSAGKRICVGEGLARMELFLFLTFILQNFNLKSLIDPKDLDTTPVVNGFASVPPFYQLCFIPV", "assay": "CYP inhibition in human liver microsomes", "type": "in vitro ADME", "conditions": "read-out: CPY450 inhibition (IC50), CYP2C19", "protocol": "as §2"}, "CYP1A2": {"target": "T4, CYP1A2 (Homo sapiens, UniProt P05177)", "T4 construct": "from tissue; host or cells: human liver microsomes", "T4 sequence (P05177 whole entry)": "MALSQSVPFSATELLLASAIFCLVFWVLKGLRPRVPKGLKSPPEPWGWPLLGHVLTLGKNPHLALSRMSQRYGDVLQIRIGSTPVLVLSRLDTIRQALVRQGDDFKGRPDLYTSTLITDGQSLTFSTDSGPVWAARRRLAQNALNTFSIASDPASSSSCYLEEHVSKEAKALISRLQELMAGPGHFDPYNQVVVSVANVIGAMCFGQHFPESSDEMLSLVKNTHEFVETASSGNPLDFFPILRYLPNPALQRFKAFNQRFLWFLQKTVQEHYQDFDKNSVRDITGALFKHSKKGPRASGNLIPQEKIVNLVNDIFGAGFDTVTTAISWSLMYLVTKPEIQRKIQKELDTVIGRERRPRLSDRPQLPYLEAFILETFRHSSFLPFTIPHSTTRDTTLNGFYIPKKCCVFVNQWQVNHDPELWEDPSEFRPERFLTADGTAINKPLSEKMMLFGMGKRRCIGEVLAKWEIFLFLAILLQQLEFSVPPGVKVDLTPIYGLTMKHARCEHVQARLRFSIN", "assay": "CYP inhibition in human liver microsomes", "type": "in vitro ADME", "conditions": "read-out: CPY450 inhibition (IC50), CYP1A2", "protocol": "as §2"}, "CYP2D6": {"target": "T5, CYP2D6 (Homo sapiens, UniProt P10635)", "T5 construct": "from tissue; host or cells: human liver microsomes", "T5 sequence (P10635 whole entry)": "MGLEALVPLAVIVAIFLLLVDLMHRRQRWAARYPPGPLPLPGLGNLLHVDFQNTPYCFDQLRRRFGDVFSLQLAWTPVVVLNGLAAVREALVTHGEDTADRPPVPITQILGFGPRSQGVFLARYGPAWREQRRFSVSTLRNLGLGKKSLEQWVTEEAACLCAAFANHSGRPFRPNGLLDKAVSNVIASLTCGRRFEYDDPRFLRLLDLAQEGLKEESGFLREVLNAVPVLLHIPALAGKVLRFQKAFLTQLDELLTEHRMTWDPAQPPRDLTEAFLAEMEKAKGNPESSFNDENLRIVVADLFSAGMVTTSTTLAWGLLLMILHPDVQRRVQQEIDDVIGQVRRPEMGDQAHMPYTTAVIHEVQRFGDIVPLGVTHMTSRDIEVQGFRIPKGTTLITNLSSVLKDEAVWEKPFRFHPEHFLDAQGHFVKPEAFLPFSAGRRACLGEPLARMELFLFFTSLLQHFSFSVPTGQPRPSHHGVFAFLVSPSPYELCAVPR", "assay": "CYP inhibition in human liver microsomes", "type": "in vitro ADME", "conditions": "read-out: CPY450 inhibition (IC50), CYP2D6", "protocol": "as §2"}, "CYP2C9": {"target": "T6, CYP2C9 (Homo sapiens, UniProt P11712)", "T6 construct": "from tissue; host or cells: human liver microsomes", "T6 sequence (P11712 whole entry)": "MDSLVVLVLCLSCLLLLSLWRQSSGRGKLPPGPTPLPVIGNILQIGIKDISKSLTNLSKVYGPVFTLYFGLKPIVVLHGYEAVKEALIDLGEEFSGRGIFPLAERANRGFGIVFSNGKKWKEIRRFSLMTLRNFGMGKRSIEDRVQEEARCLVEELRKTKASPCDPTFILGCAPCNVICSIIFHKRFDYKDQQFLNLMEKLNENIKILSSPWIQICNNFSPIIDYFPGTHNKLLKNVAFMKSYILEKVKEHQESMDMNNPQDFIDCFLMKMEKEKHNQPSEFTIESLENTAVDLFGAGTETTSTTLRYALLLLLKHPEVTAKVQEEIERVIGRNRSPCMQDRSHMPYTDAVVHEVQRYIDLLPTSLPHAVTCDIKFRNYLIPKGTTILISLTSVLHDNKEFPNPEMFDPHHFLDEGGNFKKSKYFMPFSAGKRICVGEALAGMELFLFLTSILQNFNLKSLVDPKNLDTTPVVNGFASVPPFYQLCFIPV", "assay": "CYP inhibition in human liver microsomes", "type": "in vitro ADME", "conditions": "read-out: CPY450 inhibition (IC50), CYP2C9", "protocol": "as §2"}, "CYP3A4": {"target": "CYP3A4 (Homo sapiens, UniProt P08684)", "sequence (P08684 2-503)": "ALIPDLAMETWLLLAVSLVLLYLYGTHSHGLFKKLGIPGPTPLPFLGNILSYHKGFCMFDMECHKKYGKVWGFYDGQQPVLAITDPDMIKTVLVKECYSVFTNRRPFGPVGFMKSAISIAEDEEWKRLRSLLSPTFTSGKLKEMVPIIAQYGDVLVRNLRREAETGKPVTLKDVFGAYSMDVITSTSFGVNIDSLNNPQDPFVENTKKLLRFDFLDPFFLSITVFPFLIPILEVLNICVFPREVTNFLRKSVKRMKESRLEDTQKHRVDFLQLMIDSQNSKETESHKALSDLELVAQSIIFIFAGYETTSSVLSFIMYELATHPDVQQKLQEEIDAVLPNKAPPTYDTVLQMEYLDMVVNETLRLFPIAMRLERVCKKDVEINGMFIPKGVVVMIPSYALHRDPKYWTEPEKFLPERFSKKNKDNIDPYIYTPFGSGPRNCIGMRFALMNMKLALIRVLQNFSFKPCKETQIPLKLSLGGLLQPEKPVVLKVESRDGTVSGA", "assay": "CYP inhibition in human liver microsomes", "type": "in vitro ADME", "conditions": "read-out: CPY450 inhibition (IC50), CYP3A4", "protocol": "as §2"}, "[3]": {"test_system": "MSN-enriched primary neurons and PBMCs", "assay": "LDH release assay", "type": "cell-based, mouse", "protocol": "as §1"}},
  "note": "Like-named read-outs stand apart in the source and are kept apart here.",
  "data": [
    {"smiles": "O=C(O)CCc1ccc(O)c(O)c1", "note": "[DHCA, 3(3,4-dihydroxy-phenyl) propionic acid]", "values": [
      {"measurement": "half-life", "setting": "[1]; human, plasma", "value": 1.11, "unit": "h"},
      {"measurement": "MTT assay, % of vehicle control", "setting": "[2]", "value": 100, "unit": "%"},
      {"measurement": "IC50", "setting": "CYP2B6", "value": "> 25", "unit": "µM"},
      {"measurement": "IC50", "setting": "CYP2C8", "value": "> 25", "unit": "µM"},
      {"measurement": "IC50", "setting": "CYP2C19", "value": "> 25", "unit": "µM"},
      {"measurement": "IC50", "setting": "CYP1A2", "value": "> 25", "unit": "µM"},
      {"measurement": "IC50", "setting": "CYP2D6", "value": "> 25", "unit": "µM"},
      {"measurement": "IC50", "setting": "CYP2C9", "value": "> 25", "unit": "µM"},
      {"measurement": "IC50", "setting": "CYP3A4; human, pH 7.4, probe midazolam/testosterone", "value": "> 25", "unit": "µM"},
      {"measurement": "LDH assay, % of vehicle control", "setting": "[3]", "value": 100, "unit": "%"}
    ]},
    {"smiles": "COc1cc(-c2[o+]c3cc(O)cc(O)c3cc2O[C@@H]2O[C@H](CO)[C@@H](O)[C@H](O)[C@H]2O)cc(OC)c1O", "note": "[Mal-gluc]", "values": [
      {"measurement": "Plasma stability, Half-life (human plasma)", "setting": "[1]", "value": 4.17, "unit": "h"},
      {"measurement": "MTT assay, % of vehicle control", "setting": "[2]", "value": 100, "unit": "%"},
      {"measurement": "IC50", "setting": "CYP2B6", "value": "> 25", "unit": "µM"},
      {"measurement": "IC50", "setting": "CYP2C8", "value": "> 25", "unit": "µM"},
      {"measurement": "IC50", "setting": "CYP2C19", "value": "> 25", "unit": "µM"},
      {"measurement": "IC50", "setting": "CYP1A2", "value": "> 25", "unit": "µM"},
      {"measurement": "IC50", "setting": "CYP2D6", "value": "> 25", "unit": "µM"},
      {"measurement": "IC50", "setting": "CYP2C9", "value": "> 25", "unit": "µM"},
      {"measurement": "IC50", "setting": "CYP3A4", "value": "> 25", "unit": "µM"},
      {"measurement": "LDH assay, % of vehicle control", "setting": "[3]", "value": 100, "unit": "%"}
    ]}
  ]
}
